Measured values: patent US10544090B2, “Anthraquinone analogs and methods of making and using thereof” (Georgia State University Research Foundation, Inc., priority 2012, dated 2020)

Columns and labels:
T98G = assay: Cytotoxicity against cancer cell lines (Example 5), T98G; type: cell-based; conditions: Tables 5-12; drug resistant cell line
Experimental: (§1) All of the compounds synthesized were tested against a number of cancer cell lines: Hela KB, Cos7, Molt4, K562, EU1, and T98G. The cancer cell lines vary from leukemia cell lines (Molt4, EU, K562) to solid-state tumor cell lines (Hela, KB, Cos7) and the drug resistant cell lines (T98G).

HeLa [1] = assay: Cytotoxicity against cancer cell lines (Example 5), Hela; type: cell-based; conditions: Tables 5-12
Experimental: as §1

K562 = assay: Cytotoxicity against cancer cell lines (Example 5), K562; type: cell-based; conditions: Tables 5-12
Experimental: as §1

EU1 = assay: Cytotoxicity against cancer cell lines (Example 5), EU1; type: cell-based; conditions: Tables 5-12
Experimental: as §1

KB [2] = assay: Cytotoxicity against cancer cell lines (Example 5), KB; type: cell-based; conditions: Tables 5-12
Experimental: as §1

MOLT4 [3] = assay: Cytotoxicity against cancer cell lines (Example 5), Molt4; type: cell-based; conditions: Tables 5-12; read-out: IC50 Molt4
Experimental: as §1

Cos7 = assay: Cytotoxicity against cancer cell lines (Example 5), Cos7; type: cell-based; conditions: Tables 5-12
Experimental: as §1

Hek = assay: MTT cytotoxicity assay, Hek (Table 2); type: cell-based; conditions: for IC50: Homo sapiens, HEK293, 48 h incubation, read-out: IC50 (μM) against Hek
Experimental: (§2) The in vitro cytotoxicity studies of the synthesized compounds were performed in three different cell lines (HeLa, Hek, and KB). The activities of the herein described analogues were compared to that of rhein itself and doxorubicin. Due to the poor solubility of the compounds, all of the solutions used for biological testing were prepared using DMSO as solvent.

HeLa [4] = assay: MTT cytotoxicity assay, HeLa (Table 2); conditions: for IC50: Homo sapiens, HeLa, 48 h, read-out: IC50 (μM) against HeLa, MTT, 48 h incubation
Experimental: as §2

KB [5] = assay: MTT cytotoxicity assay, KB (Table 2); type: cell-based; conditions: 48 h incubation; for IC50: Homo sapiens, KB, 48 h, read-out: IC50 (μM) against KB
Experimental: as §2

HeLa [6] = assay: MTT cytotoxicity evaluation of series 1 and 2 rhein analogues, HeLa (Tables 3, 4); type: cell-based; conditions: Homo sapiens, HeLa; MTT; Tables 3 and 4; read-out: IC50 (μM) against HeLa
MOLT4 [7] = assay: MTT cytotoxicity evaluation of series 1 and 2 rhein analogues, MOLT4 (Tables 3, 4); conditions: Homo sapiens, MOLT-4, read-out: IC50 (μM) against MOLT4

SMILES | IC50 (T98G) [µM] | IC50 (HeLa [1]) [µM] | IC50 (K562) [µM] | IC50 (EU1) [µM] | IC50 (KB [2]) [µM] | IC50 (MOLT4 [3]) [µM] | IC50 (Cos7) [µM] | IC50 (HeLa [6]) [µM] | IC50 (MOLT4 [7]) [µM] | also measured
CCOc1cccc2c1C(=O)c1c(OCC)cc(NC(=O)CO)cc1C2=O [BW-AQ-157] | 15.4 | 6.35 | 1.8 | 0.358 | 9.5 | 0.42 | 5 |  |  | 
C=CC(=O)Nc1cc(OCC)c2c(c1)C(=O)c1cccc(OCC)c1C2=O [BW-AQ-158] | 21 | 19.7 | 10.7 | 6 | 20.3 | < 3.2 | 8.42 |  |  | 
C=CCOc1cccc2c1C(=O)c1c(OCC=C)cc(NC(=O)CCl)cc1C2=O [BW-AQ-161] | > 50 | > 20 | > 10 | > 10 | > 20 | > 10 | > 20 |  |  | 
C=CCOc1cccc2c1C(=O)c1c(OCC=C)cc(NC(=O)CI)cc1C2=O [BW-AQ-163] | > 50 | > 50 | > 25 | > 25 | 14.7 | > 25 | > 50 |  |  | 
C=CCOc1cccc2c1C(=O)c1c(OCC=C)cc(NC(=O)CN=[N+]=[N-])cc1C2=O [BW-AQ-164] | > 50 | > 50 | > 25 | > 25 | > 50 | > 25 | > 50 |  |  | 
CCOc1cccc2c1C(=O)c1c(OCC)cc(NC(=O)CNC)cc1C2=O [BW-AQ-167] | 11.2 | 0.753 | 2.05 | 13.6 | 1.54 | 21.5 | 5.51 |  |  | 
O=C(CCl)Nc1cc(O)c2c(c1)C(=O)c1cccc(O)c1C2=O [Compound 5, 1,8-Dihydroxy-3-(2′-chloro-acetamido)-anthraquinone] |  |  |  |  |  |  |  |  |  | IC50 (μM) against Hek (Hek; 48 h incubation): low micro molar; IC50 (Hek): 4 µM; IC50 (HeLa [4]; Table 2): 4 µM; IC50 (μM) against HeLa (HeLa [4]; MTT, 48 h incubation, Table 2): low micro molar; cytotoxicity against HeLa cells compared to rhein (HeLa [4]; in words): significant improvement; IC50 (μM) against KB (KB [5]): low micro molar; IC50 (KB [5]): 4.5 µM
O=C(CBr)Nc1cc(O)c2c(c1)C(=O)c1cccc(O)c1C2=O [Compound 6, 1,8-Dihydroxy-3-(2′-bromo-acetamido)-anthraquinone] |  |  |  |  |  |  |  |  |  | IC50 (Hek): 8 µM; IC50 (HeLa [4]; Table 2): 40 µM; times more potent than rhein against HeLa (HeLa [4]; ratio of IC50 values): 2.5 fold; IC50 (KB [5]): 15 µM
O=C(CI)Nc1cc(O)c2c(c1)C(=O)c1cccc(O)c1C2=O [Compound 7, 1,8-Dihydroxy-3-(2′-iodo-acetamido)-anthraquinone] |  |  |  |  |  |  |  | 17 | 10 | IC50 (Hek): 2 µM; IC50 (HeLa [4]; Table 2): 10 µM; IC50 (KB [5]): 9 µM
CCN(CC)CC(=O)Nc1cc(O)c2c(c1)C(=O)c1cccc(O)c1C2=O [Compound 9a, 1,8-Dihydroxy-3-(2′-diethylamino-acetamido)-anthraquinone] |  |  |  |  |  |  |  | 6.1 | 3 | 
CN1CCN(CC(=O)Nc2cc(O)c3c(c2)C(=O)c2cccc(O)c2C3=O)CC1 [Compound 9b, 1,8-Dihydroxy-3-(2′-(4″-methylpiperazin-1″-yl)-acetamido)-anthraquinone] |  |  |  |  |  |  |  | 5.8 | 3.1 | 
O=C(CN1CCOCC1)Nc1cc(O)c2c(c1)C(=O)c1cccc(O)c1C2=O [Compound 9c, 1,8-dihydroxy-3-(2′-morpholino-acetamido)-anthraquinone] |  |  |  |  |  |  |  | 13 | 25 | 
O=C(CN1CCCCC1)Nc1cc(O)c2c(c1)C(=O)c1cccc(O)c1C2=O [Compound 9d, 1,8-Dihydroxy-3-(2′-piperidinyl-acetamido)-anthraquinone] |  |  |  |  |  |  |  | 33 | 4.1 | 
COc1cccc2c1C(=O)c1c(OC)cc(NC(=O)CBr)cc1C2=O [Compound 13, 1,8-dimethoxy-3-(2′-bromo-acetamido)-anthraquinone] |  |  |  |  |  |  |  |  |  | IC50 (Hek): 2.3 µM; IC50 (HeLa [4]; Table 2): 8 µM; IC50 (KB [5]): 38 µM
